Results as given in US9469650B2, “Melampomagnolide B derivatives” (BOARD OF TRUSTEES OF THE UNIVERSITY OF ARKANSAS, priority 2013, dated 2016).

How the values were obtained:
NCI-H522 = test: panel of 60 human tumor cell lines, growth inhibition (Non-Small Cell Lung Cancer); conditions: Homo sapiens
HT29 = test: panel of 60 human tumor cell lines, growth inhibition (Colon Cancer); conditions: for Percent Growth: HT29
SF-295 = test: panel of 60 human tumor cell lines, growth inhibition (CNS Cancer); conditions: Homo sapiens
OVCAR-3 = test: panel of 60 human tumor cell lines, growth inhibition (Ovarian Cancer)
TK-10 = test: panel of 60 human tumor cell lines, growth inhibition (Renal Cancer); conditions: Homo sapiens
K-562 = test: panel of 60 human tumor cell lines, growth inhibition (Leukemia)
A549/ATCC = test: panel of 60 human tumor cell lines, growth inhibition (Non-Small Cell Lung Cancer); conditions: Homo sapiens
OVCAR-5 = test: panel of 60 human tumor cell lines, growth inhibition (Ovarian Cancer); conditions: Homo sapiens
SW-620 = test: panel of 60 human tumor cell lines, growth inhibition (Colon Cancer); conditions: Homo sapiens
HS 578T = test: panel of 60 human tumor cell lines, growth inhibition (Breast Cancer); conditions: Homo sapiens, Hs-578T
T-47D = test: as above; conditions: Homo sapiens, T47D
HCT-116 = test: panel of 60 human tumor cell lines, growth inhibition (Colon Cancer); conditions: Homo sapiens
NCI-H322M = test: panel of 60 human tumor cell lines, growth inhibition (Non-Small Cell Lung Cancer); conditions: Homo sapiens
HCT-15 = test: panel of 60 human tumor cell lines, growth inhibition (Colon Cancer); conditions: Homo sapiens
SNB-75 = test: panel of 60 human tumor cell lines, growth inhibition (CNS Cancer); conditions: Homo sapiens
SF-268 = test: as above; conditions: Homo sapiens
BT-549 = test: panel of 60 human tumor cell lines, growth inhibition (Breast Cancer); conditions: Homo sapiens

C=C1C(=O)O[C@H]2[C@H]1CC/C(COC(=S)n1ccnc1)=C\CC[C@@]1(C)O[C@@H]21 [JVM 66]
GI50 (NCI-H522; NCI-H522): 5.19 µM | CC50 (NCI-H522; NCI-H522, read-out: LC50): 66.9 µM | IC (TGI) (NCI-H522; NCI-H522, read-out: TGI): 21.3 µM | Percent Growth (HT29; Log10 Concentration −4.0): −70% | Percent Growth (HT29; Log10 Concentration −5.0): 60% | Percent Growth (HT29; Log10 Concentration −6.0): 105% | Percent Growth (HT29; Log10 Concentration −7.0): 100% | Percent Growth (HT29; Log10 Concentration −8.0): 99% | GI50 (HT29; Homo sapiens, HT-29): 12 µM | CC50 (HT29; Homo sapiens, HT-29, read-out: LC50): 69.9 µM | IC (TGI) (HT29; Homo sapiens, HT-29, read-out: TGI): 29 µM | GI50 (SF-295; SF-295): 45 µM | CC50 (SF-295; SF-295, read-out: LC50): > 100 µM | IC (TGI) (SF-295; SF-295, read-out: TGI): 106 µM | GI50 (OVCAR-3; Homo sapiens, OVCAR-3): 10.4 µM | CC50 (OVCAR-3; Homo sapiens, OVCAR-3, read-out: LC50): 49.2 µM | Percent Growth (OVCAR-3; OVCAR-3, Log10 Concentration −4.0): −96% | Percent Growth (OVCAR-3; OVCAR-3, Log10 Concentration −5.0): 53% | Percent Growth (OVCAR-3; OVCAR-3, Log10 Concentration −6.0): 103% | Percent Growth (OVCAR-3; OVCAR-3, Log10 Concentration −7.0): 130% | Percent Growth (OVCAR-3; OVCAR-3, Log10 Concentration −8.0): 101% | GI50 (TK-10; TK-10, TK-10, NCI five dose): 10.5 µM | CC50 (TK-10; TK-10, read-out: LC50): 58.2 µM | IC (TGI) (TK-10; TK-10, read-out: TGI): 24.8 µM | CC50 (K-562; Homo sapiens, K562, read-out: LC50): > 100 µM | Percent Growth (K-562; K-562, Log10 Concentration −4.0): 1% | Percent Growth (K-562; K-562, Log10 Concentration −5.0): 16% | Percent Growth (K-562; K-562, Log10 Concentration −6.0): 100% | Percent Growth (K-562; K-562, Log10 Concentration −7.0): 90% | Percent Growth (K-562; K-562, Log10 Concentration −8.0): 96% | TGI (K-562; K-562, NCI five dose): >1.00E−4 | CC50 (A549/ATCC; A549, read-out: LC50): > 100 µM | IC (TGI) (A549/ATCC; A549, read-out: TGI): 106 µM | GI50 (OVCAR-5; OVCAR-5): 13.5 µM | CC50 (OVCAR-5; OVCAR-5, read-out: LC50): 78.1 µM | IC (TGI) (OVCAR-5; OVCAR-5, read-out: TGI): 1760 µM | GI50 (SW-620; SW-620, SW-620, NCI five dose): 4.86 µM | CC50 (SW-620; SW-620, read-out: LC50): 78.3 µM | IC (TGI) (SW-620; SW-620, read-out: TGI): 21.7 µM | GI50 (HS 578T): 26.5 µM | CC50 (HS 578T; read-out: LC50): > 100 µM | IC (TGI) (HS 578T; read-out: TGI): > 100 µM | GI50 (T-47D): 12.9 µM | CC50 (T-47D; read-out: LC50): > 100 µM | IC (TGI) (T-47D; read-out: TGI): 42.4 µM | GI50 (HCT-116; HCT-116, HCT-116, NCI five dose): 2.47 µM | CC50 (HCT-116; HCT-116, read-out: LC50): 33 µM | IC (TGI) (HCT-116; HCT-116, read-out: TGI): 7.03 µM | GI50 (NCI-H322M): 69.5 µM | CC50 (NCI-H322M; read-out: LC50): > 100 µM | IC (TGI) (NCI-H322M; read-out: TGI): 106 µM | GI50 (HCT-15; HCT-15): 6.88 µM | CC50 (HCT-15; HCT-15, read-out: LC50): 89.2 µM | IC (TGI) (HCT-15; HCT-15, read-out: TGI): 27.1 µM | GI50 (SNB-75; SNB-75): 39.3 µM | CC50 (SNB-75; SNB-75, read-out: LC50): > 100 µM | IC (TGI) (SNB-75; SNB-75, read-out: TGI): > 106 µM | GI50 (SF-268; SF-268): 21.9 µM | CC50 (SF-268; SF-268, read-out: LC50): > 100 µM | IC (TGI) (SF-268; SF-268, read-out: TGI): 67.7 µM | GI50 (BT-549; BT-549): 18.3 µM | CC50 (BT-549; BT-549, read-out: LC50): > 100 µM | IC (TGI) (BT-549; BT-549, read-out: TGI): 68 µM
